From US12241094B2, “Phenazine degrading agents and related compositions, methods and systems for interfering with viability of bacteria” (priority 2016, dated 2025)
Where two headings read alike, the source gives them in different places. Marks after values point to notes of the source that are not given here.

Key:
Pa PA14 biofilms = assay: Tobramycin tolerance of Pa PA14 biofilms; format: cell-based, P. aeruginosa
Method: In varying the amount of added 1-OH-PHZox, it was observed a dose-dependent response: the greater the [1-OHPHZox], the greater the biofilm inhibition, yet, under these conditions, saturating at 200 μM (FIG. 20B). To set the stage for flow-cell experiments to explore PodA and 1-OH-PHZ effects on biofilm inhibition and biofilm dissolution, the time course for biofilm development was mapped for Pa PA14 constitutively expressing YFP under constant flow in a minimal medium (FIG. 20C) as previously described (Wang et al. (2011) J Bacteriol. 193(14):3606-17). In addition, an appropriate initial tobramycin concentration to use in Pa PA14 biofilm experiments was also identified to test the hypothesis that PodA or 1-OH-PHZ can sensitize biofilms to antibiotics: Pa PA14 biofilms tolerate 20 μg/ml, 10× the MIC for tobramycin for planktonic cultures, similar to what has been reported for biofilms of Pa PAO1 (Bjarnsholt et al. (2005) Microbiol-Sgm. 2005; 151:373-83).

Pa PA14 biofilm = assay: Biofilm biomass by DAPI intensity (Example 7); format: cell-based, P. aeruginosa
Method: In this example, to check for an effect of PodA or 1-OH-PHZ on biofilm development, Pa PA14 was grown in 8-well chambered microscope slides designed for biofilm imaging, as previously reported (Das et al. (2015) Sci Rep. 5:8398). Overnight cultures of Pa PA14 were diluted to a starting optical density of 0.25 and grown directly on the slides (volume of 250 μl per chamber). After 5 h incubation at 37° C., planktonic cells were rinsed from the slide and remaining cells were stained with DAPI. Biofilm biomass was quantified by DAPI intensity on a Leica confocal microscope, with LAS X software. Pa PA14 incubated in the presence of 1 μM PodA or 100 μM 1-OHPHZox had ˜50% the biofilm biomass of Pa PA14 alone (FIG. 20A).

P. aeruginosa biofilm [1] = assay: Optical density of P. aeruginosa biofilm; format: cell-based; conditions: PodA vs inactive E154A; 1-OH-PHZ vs 1% DMSO
[2] = Kidani 1958; cited from earlier work
[3] = system: P. aeruginosa planktonic culture; assay: Phenazines in planktonic P. aeruginosa cultures (HPLC); format: cell-based; conditions: 24 hours
Source text: Product was cut with DpnI to remove WT vector, phosphorylated with T4 polynucleotide kinase, and ligated to generate a circular mutant protein expression construct. For D72N and Y156F mutants, DNA fragments encoding the mutation were synthesized (Integrated DNA Technologies) and cloned into pET-20b(+) as for the wild type sequence. Enzymes for cloning were purchased from New England Biolabs. Constructs were transferred to E. coli BL21(DE3) for expression. All mutations were confirmed by Sanger sequencing (Laragen and Retrogen). When necessary, 100 μg mL^−1 carbenicillin was included in all growth media to maintain selection for the plasmid. To measure the effect of PodA30-162 on phenazine production in planktonically grown P. aeruginosa, cultures were grown overnight in 5 mL volumes of tryptic soy broth (TSB) or succinate minimal medium (arginine medium recipe from Glasser et al., 2014 with 40 mM sodium succinate in place of arginine) (3) in the presence 1 μg mL^−1 PodA30-162. Cells were removed by centrifugation and supernatants were analyzed by HPLC as previously described (9). See below for a description of biofilm growth of P. aeruginosa PA14. To induce protein expression, an overnight culture was inoculated 1/1000 in Terrific Broth (BD Difco). Cultures were grown in baffled Erlenmeyer flasks (1 L culture per 3 L flask) at 37° C. with 150 rpm agitation in a shaking incubator (Innova 44 shaking incubator, New Brunswick). After 3-4 hours, the temperature was changed to 16° C. and cultures were induced with 50 μM (final concentration) IPTG and left to incubate overnight. Cells were then pelleted by centrifugation, flash frozen in liquid N2, and stored at −80° C. for up to 1 month before protein purification.

[4] = system: Pa PA14 biofilm transcriptome; assay: RNASeq transcriptome of biofilm cultures; format: cell-based, P. aeruginosa; conditions: 5 h
Method: Because 1-OH-PHZ induces iron starvation in A. fumigatus (Briard et al. (2015) Scientific Reports. 2015; 5), it was speculated that the abrogation of biofilm development in P. aeruginosa grown in the presence of either PodA or 1-OH-PHZox may be mediated by a response to Fe-limitation. To test this idea, changes to the transcriptome of Pa PA14 by RNASeq were assessed. After 5 h of incubation in the presence of PodA (1 μM), 1-OH-PHZ (200 μM) or PYO (200 μM), RNA was prepared from 1 ml of biofilm cultures (250 μl pooled from 4 static biofilm chambers) for analysis on an Illumina HiSeq 2500 sequencer at the Millard and Muriel Jacobs Genetics and Genomics Laboratory, as previously described (Babin et al. (2016) Proc Natl Acad Sci USA. 113(5):E597-E605; Kreamer et al. (2015) M Bio. 2015; 6(2):e02549. Epub 2015/02/26). This experiment was designed to identify genes that were likely to be specifically affected by PodA's transformation of PYO to 1-OH-PHZ under a condition that inhibited biofilm formation (FIG. 20A). As a reference for genes responsive to iron availability, these transcriptomes were compared to those previously found to respond to Fe(II) shock (Kreamer et al. (2015) M Bio. 2015; 6(2):e02549. Epub 2015/02/26).

[5] = oxidized form, values from references a, c, d; cited from earlier work
P. aeruginosa biofilm [6] = assay: Microcolony number and size in 5 hour biofilms on succinate minimal medium; format: cell-based; conditions: 100 μM 1-OHPHZ or 0.5 μg mL-1 PodA
Source text: FIGS. 24A-C show charts and images illustrating results of exemplary experiments showing that PodA and 1-OH-PHZ inhibit the early stages of P. aeruginosa biofilm formation on succinate minimal medium. […] Numbers are averages and SD from 8 biological replicates.

PA14 [7] = assay: Reduction of redox-active compounds by PA14 (Table 1); format: cell-based, P. aeruginosa
PA14 [8] = assay: Redox cycles over 7 days and support of survival (Table 1); format: cell-based, P. aeruginosa
[9] = Redox potential E0' (vs. NHE) of redox-active compounds; format: physicochemical; conditions: measured in aqueous solution at pH 7 in this study (footnote b)
[10] = PYO's hydroxyl group; cited from earlier work
S. oneidensis MR1 = conditions: 100 μM PYO vs absence of PYO; cited from earlier work
S. aureus MN8 = conditions: 100 μM PYO vs absence of PYO; cited from earlier work
E. coli DH5α = conditions: 100 μM PYO vs absence of PYO; cited from earlier work
P. aeruginosa Δphz = conditions: 25 μM PYO; images from Ramos et al., 2010; cited from earlier work

**Q.** With `NC[C@H]1O[C@H](O[C@H]2[C@H](O)[C@@H](O[C@H]3O[C@H](CO)[C@@H](O)[C@H](N)[C@H]3O)[C@H](N)C[C@@H]2N)[C@H](N)C[C@@H]1O` [tobramycin] as the molecule, how does the “tobramycin concentration tolerated by biofilms” value (Pa PA14 biofilms) read?
**A.** 20 µg/mL

**Q.** And the “tolerated concentration relative to MIC for planktonic cultures” value (Pa PA14 biofilms)?
**A.** 10 × the MIC

**Q.** With `Oc1cccc2nc3ccccc3nc12` [1-OH-PHZ, 1-Hydroxyphenazine] as the molecule, how does the “biofilm biomass relative to Pa PA14 alone” value (Pa PA14 biofilm; 1 μM PodA or 100 μM 1-OHPHZox, 5 h at 37° C) read?
**A.** ~50%

**Q.** What about the “biofilm formation compared to untreated control” value (Pa PA14 biofilm; PodA 1 μM, 1-OH-PHZ 100 μM, total DAPI staining) of the same molecule?
**A.** inhibit biofilm formation

**Q.** What about the “concentration at which biofilm inhibition saturates” value (Pa PA14 biofilm; dose-dependent response) of the same molecule?
**A.** 200 µM

**Q.** And the “optical density of biofilm” value (P. aeruginosa biofilm [1])?
**A.** not significantly different

**Q.** And the “log of the equilibrium constant βmlh of binding copper” value [2]?
**A.** 8.68

**Q.** What about the “production of PYO” value ([3]; minimal medium with succinate) of the same molecule?
**A.** negative impact

**Q.** What about the phenazine production ([3]; tryptic soy broth) of the same molecule?
**A.** changes to the concentrations of all four phenazines

**Q.** And the “upregulation of genes in iron responsive pathways” value ([4]; 200 μM)?
**A.** 2-10 fold

**Q.** What about the “expression of small gene cluster incl. QapR regulon” value [4] of the same molecule?
**A.** upregulated modestly

**Q.** And the “E^0, (vs. NHE)” value [5]?
**A.** −174^a mV

**Q.** What about the microcolony diameter (P. aeruginosa biofilm [6]) of the same molecule?
**A.** does decrease

**Q.** And the “number of microcolonies formed” value (P. aeruginosa biofilm [6]; vs inactive E154A)?
**A.** does not significantly affect

**Q.** And the “Reduction by PA14?” value (PA14 [7])?
**A.** Yes

**Q.** And the “# of Redox cycles over 7 days” value (PA14 [8])?
**A.** 14

**Q.** And the “Support survival?” value (PA14 [8])?
**A.** Yes

**Q.** What does the source list for `O=C(O)Cc1cc(O)ccc1O` [Homogentisic acid (HMA), Homogentisic acid]?
**A.** E^0, (vs. NHE) [9]: +306^b mV; # of Redox cycles over 7 days (PA14 [8]): No cycle; Support survival? (PA14 [8]): No

**Q.** Which pKa [10] does the source give for `Cn1c2cccc(=O)c-2nc2ccccc21` [PYO, Pyocyanin] here?
**A.** ~5

**Q.** And the colony growth (S. oneidensis MR1)?
**A.** decreased colony growth

**Q.** And the colony growth (S. aureus MN8)?
**A.** decreased colony growth

**Q.** What about the “log(2) changes relative to untreated control, metal scavenging and starvation response genes (FIG. 21A)” value ([4]; PodA 1 μM, 1-OH-PHZ 200 μM, PYO 200 μM) of the same molecule?
**A.** ~0 log(2)

**Q.** And the “E^0, (vs. NHE)” value [5]?
**A.** −40^a mV

**Q.** What about the colony growth (E. coli DH5α) of the same molecule?
**A.** decreased colony growth

**Q.** And the “biofilm production of Δphz” value (P. aeruginosa Δphz)?
**A.** restored

**Q.** What about the “Reduction by PA14?” value (PA14 [7]) of the same molecule?
**A.** Yes

**Q.** And the “# of Redox cycles over 7 days” value (PA14 [8])?
**A.** 31

**Q.** What about the “Support survival?” value (PA14 [8]) of the same molecule?
**A.** Yes

**Q.** Which results are given for `CN(C)c1ccc2nc3ccc(=[N+](C)C)cc-3sc2c1` [Methylene blue (MB), Methylene blue]?
**A.** E^0, (vs. NHE) [9]: 0 mV; E^0, (vs. NHE) [5]: +11 mV; Reduction by PA14? (PA14 [7]): Yes; # of Redox cycles over 7 days (PA14 [8]): 3; Support survival? (PA14 [8]): No
